Results reported in the OPERA property sets (Mansouri et al. 2018).
Peptide text beside a SMILES is read from it. * marks the point of attachment. Cbz = O=C(OCc1ccccc1)*

Compound	logP
CCC(CC)C1=Nc2ccccc2S(=O)(=O)N1	1.88
COc1ccccc1C=CC(=O)OCCOc1ccc(C=O)cc1OC	3.65
CC(=O)OC1OC(C)C(OC(C)=O)C(OC(C)=O)C1NC(=O)N(CCCl)N=O (stereo not drawn)	1.32
CN(C(=O)CCSC#N)c1ccc(S(=O)(=O)N(C)C)cc1	0.84
CC1(C)N=C(N)N=C(N)N1c1cccc([N+](=O)[O-])c1	0.06
O=C(O)c1cc(=O)c2cc3c(cc2o1)CCCC3	3.4
COc1cccc2c1C(=O)c1c(O)c3c(c(O)c1C2=O)CC(O)(C(=O)CO)CC3O (stereo not drawn)	2.74
COC(=O)c1cc2nc(S(=O)Cc3ncccc3C)[nH]c2cc1C (stereo not drawn)	2.4
O=NN1CCCCC1=O	-1.05
COc1cccc(OC)n1	2.3
CCOC(=O)CC(=O)C=Cc1cccc(C)c1	2.8
CCCC(=O)Nc1ccc(Cl)c(Cl)c1	3.77
O=NN(CCCl)C(=O)NC1CCC(NC(=O)N(CCCl)N=O)CC1 (stereo not drawn)	2.74
CSc1ccc(C=NN=C(N)NN)cc1	1.35
COc1ccc(-c2nc3ccncc3[nH]2)c(OCCCCl)c1	3.53
CC1(C)OC2CC3C4CC(F)C5=CC(=O)C(Cl)=CC5(C)C4(F)C(O)CC3(C)C2(C(=O)CO)O1 (stereo not drawn)	2.99
S=C(Nc1ccccc1)c1ccccc1	3.03
NN=C(c1ccccc1)c1ccccc1	2.79
O=C1CC(C(=O)O)Oc2ccccc21 (stereo not drawn)	1.26
O=C(O)c1cc(=O)c2ccccc2o1	1.63
O=[N+]([O-])c1ccc(OCCn2ccnn2)cc1	1.19
FC(F)(F)C(F)(F)C(F)(F)C(F)(F)C(F)(F)F	4.4
ON=C(c1ccccc1)c1ccccc1	3.2
FC(F)(F)CN(CC(F)(F)F)c1ccc(Br)cc1	4.7

Compound	logP
CC(=O)Nc1ccccc1NC(C)=O	-0.03
CCN(CC)c1c(C)n(C)c(=O)n(-c2ccccc2)c1=O	2.11
CC(=O)OC[C@@H](OC(C)=O)[C@@H](OC(C)=O)[C@H](OC(C)=O)[C@H](C=O)OC(C)=O	0.63
O=C(O)c1ccc[nH]1	0.85
COc1cc(C=NO)ccc1OCCOC(=O)c1ccccc1	2.94
CC(=O)Nc1cccc(OCc2cccc(N3C(N)=NC(N)=NC3(C)C)c2)c1	1.15
O=NN(CCCl)C(=O)NC1(C(=O)O)CCCC1	2.01
O=C(Nc1ccc(Cl)c(Cl)c1)C1CCCC1	4.47
CC1=C(C(=O)O)N2C(=O)C(NC(=O)C(O)c3ccccc3)C2SC1 (stereo not drawn)	0.46
CCN(CC)c1c(C)n(-c2ccccc2)c(=O)n(C)c1=O	2.19
N#CN=Nc1ccccc1	2.3
O=C1C=CC(=NCl)C=C1	1.26
O=CC=Cc1ccco1	1.15
Cc1c(N2CCOCC2)c(=O)n(-c2ccccc2)c(=O)n1C	0.69
CC(=O)Nc1ccccc1C#N	0.57
CC(=O)Nc1cccc(C#N)c1	1.2
CCCCC(=O)N(C)c1ccc(S(=O)(=O)N(C)C)cc1	1.63
c1ccc(CSc2cnn[nH]2)cc1	2.65
C[N+](C)(C)Cc1cccc(C(F)(F)F)c1.[Br-]	-1.35
CCOc1ccccc1NC(C)=O	1.49
C=CCn1c(=O)c(N(C)C)c(C)n(-c2ccccc2)c1=O	1.98
COc1cc(C=O)ccc1OCCOC(=O)c1ccccc1Cl	3.21
COc1cc(C=O)ccc1OCCOC(=O)c1cccc(Cl)c1	3.67
NC(=O)Nc1cccc(NC(N)=O)c1	0.58

Compound	logP
CCCCNc1c(C)n(C)c(=O)n(-c2ccccc2)c1=O	1.69
COc1ncccn1	0.23
CC(=O)Nc1ccc(C#N)cc1	1.37
CS(=O)(=O)OCCCNCCCOS(C)(=O)=O	-1.71
CCOC(=O)CC(=O)C=Cc1ccccc1C	2.66
O=C(CN(C(=O)CCl)c1ccccc1)Nc1ccccc1	2.32
CC(=O)Nc1ccc2c(c1)S(=O)(=O)c1ccccc1C2=O	2.35
CC(C)(C)[N+]([O-])=NC#N	1.4
CCC1(c2ccccc2)NC(=O)NC1=O (stereo not drawn)	1.53
CN(C)C(=S)Nc1ccccc1	1.04
COC(=O)CCC(=O)N(C)c1ccc(S(=O)(=O)N(C)C)cc1	0.43
Cn1nnnc1SCc1ccccc1	1.63
CCOC(=O)CCC(=O)N(C)c1cccc(S(=O)(=O)N(C)C)c1	0.84
CC(C)Cn1c(=O)n(C)c(=O)c2[nH]cnc21	1.15
CC(=O)Nc1ccc(CN(C)N=Nc2ccc(C(=O)O)cc2)cc1	3.35
CN(C)/N=N/c1ccccc1C(=O)NCC#N	1.79
O=C(O)c1cc(=O)c2c(OCC(O)COc3cccc4oc(C(=O)O)cc(=O)c34)cccc2o1	1.92
Cc1c(NCC(C)C)c(=O)n(-c2ccccc2)c(=O)n1C	1.48
CCN(CC)Cc1ccc(C(=O)Nc2c(C)cccc2C)cc1	3.49
CC(=O)N(C)c1ccc(S(=O)(=O)N(C)C)cc1	0.23
Cc1cccc(C)c1NC(=O)c1ccc(CN2CCCCC2)cc1	3.86
NC1=NC(C(F)(F)F)(C(F)(F)F)NC1(C(F)(F)F)C(F)(F)F	3.35
CCOC(CCC#N)OCC	0.75
CCCc1ccc(NC(C)=O)cc1	2.75

Compound	logP
Cn1c(C=O)cnc1[N+](=O)[O-]	-0.1
CC(Cl)C(=O)N(CC(=O)Nc1ccccc1)c1ccccc1 (stereo not drawn)	3.02
O=C([O-])c1cc2ccccc2cc1O.[Na+]	0.17
CN(C)c1ccc(C(=C2C=CC(=[N+](C)C)C=C2)c2ccc(N(C)C)cc2)cc1.[Cl-]	0.96
Cn1cnc2ccccc2c1=O	0.69
CN(C)C(=S)NCc1ccccc1	1.59
CCC(=O)OCC(=O)C1(OC(=O)CC)C(C)CC2C3CC(F)C4=CC(=O)C(Cl)=CC4(C)C3(F)C(O)CC21C (stereo not drawn)	4.22
O=[N+]([O-])c1ccc(/C=C/c2cccc(CO)n2)o1	1.37
CC(=O)NC1=CC(=O)N(c2ccc(Cl)cc2)C1=O	0.75
COc1cccc(Cc2cnc(N)nc2N)c1OC	1.62
CC(C)(NC(=O)N(CCCl)N=O)C(=O)O	1.74
O=S(=O)(NS(=O)(=O)c1ccccc1)c1ccccc1	0.52
CC(C)C(NC(=O)OCc1ccccc1)C(=O)NC(Cc1ccc(O)cc1)C(=O)O (stereo not drawn) (Cbz-Val-Tyr-OH; configuration not given here)	2.43
O=C(CCl)Nc1ccc(Cl)c(Cl)c1	3.29
CC(=O)OCC1OC(NC(=O)N(CCCl)N=O)C(OC(C)=O)C(OC(C)=O)C1OC(C)=O (stereo not drawn)	1.04
O=S(=O)(NO)c1ccccc1	0.48
CC(C)(C)/[N+]([O-])=C/c1ccccc1	1.26
CN/C(=N\C#N)NCCSCc1csc(N=C(N)N)n1	0.68
NC(=O)c1ncccc1O	0.65
Nc1ccc(S(=O)(=O)[O-])c2ccccc12.[Na+]	-2.34
CCOC(=O)CON=Cc1ccc(OCCOC(=O)c2ccccc2OC)c(OC)c1	3.27
CN(C(=O)CCO)c1ccc(S(=O)(=O)N(C)C)cc1	-0.26
CCOCCOC(=O)C(C#N)=C(CC)Nc1ccc([N+](=O)[O-])cc1	2.6
CCC(=O)OCCOc1ccc(C=O)cc1OC	1.33

Compound	logP
CC(C)C(=O)Nc1ccc(Cl)c(Cl)c1	3.72
CCCCOc1ccnc(C=CC2=CC([N+](=O)[O-])O2)n1 (stereo not drawn)	2.04
COc1ccc(-c2nc3ncccc3[nH]2)c(OC)c1	2.57
COc1nnccc1N(C)C	0.9
Cc1oc2cc(OCC#N)ccc2c(=O)c1C	1.96
CSC(=O)Nc1ccc(Cl)c(Cl)c1	4.23
O=S1(=O)NC(C2=CCCC2)=Nc2ccccc21	1.69
COc1cc(C=NO)ccc1OCCO	0.82
COc1cccc(OC)c1OC	1.53
NCC(=O)NCC(=O)NCC(=O)NCC(=O)NCC(=O)O	-3.31
O=C(OCCNC(=O)C(F)(F)F)c1ccccc1	2.25
O=C(O)c1ccccc1-c1ccccc1	2.89
CCCCCCCCCCCCN.Cl	1.85
Cn1c(SCC2=C(C(=O)O)N3C(=O)C(NC(=O)Cc4cccs4)C3SC2)nnc(O)c1=O (stereo not drawn)	-0.52
c1ccc(Cc2nn[nH]n2)cc1	1.36
COc1cc(C=NO)ccc1OCCOC(=O)c1ccc(Cl)cc1	3.92
CCCc1ccc2c(c1)C(=O)c1ccc(NC(C)=O)cc1S2(=O)=O	3.51
CCCCCC1CNC(C(=O)NC(C(C)Cl)C2OC(SC)C(O)C(O)C2O)C1 (stereo not drawn)	2.74
CNC(=O)Oc1cccc(Cl)c1Cl	2.48
COc1ccc(Cc2cnc(N)nc2N)c(OC)c1OC	1.52
Cc1c(N(C)C)c(=O)[nH]c(=O)n1-c1ccccc1	1.4
CC(=O)n1ccnc1	-0.34
O=[N+]([O-])c1ccc(C(F)(F)F)cc1	2.55
CC(=O)Nc1ccccc1C(C)C	1.71

Compound	logP
CNc1cccc2ccccc12	2.88
CCOC(=O)C(=Cc1ccc(OC)c(OC)c1)C(=O)OCC	2.89
COc1ccc(C(C)=O)c(N)c1	1.76
Nc1nnc(N)[nH]1	-1.61
CCOC(=O)N=[N+]([O-])c1ccccc1	2.53
O=C1c2ccccc2C(=O)C1(O)O	0.67
Cc1nccnn1	-1.31
N[C@@H](CSC(c1ccccc1)(c1ccccc1)c1ccccc1)C(=O)O	2.06
CCCC1CC(C(=O)NC(C(C)Cl)C2OC(SC)C(O)C(O)C2O)N(CC)C1 (stereo not drawn)	2.51
CC(=O)OCC1CCC(NC(=O)N(CCCl)N=O)CC1 (stereo not drawn)	2.24
C[n+]1c2cc(N)ccc2cc2ccc(N)cc21.[Cl-]	-1.78
CNC(=S)NC12CC3CC(CC(C3)C1)C2	2.67
CN(Cc1ccccc1)N=Nc1ccc(C(=O)O)cc1	4.04
O=C1NC(c2cccc3ccccc23)Nc2ccccc21 (stereo not drawn)	2.96
CC(C)CC(CC(C)C)OC(=O)c1ccc(NC(=O)N(C)C)cc1Cl	5.15
S=c1cc[nH]cc1	0.2
CC(=O)OCCC(=O)N(C)c1ccc(S(=O)(=O)N(C)C)cc1	0.26
c1ccn2nnnc2c1	-0.09
COc1cc(C=NO)ccc1OCCOC(=O)COc1ccccc1	2.1
COc1cc(C=NO)ccc1OCCOC(=O)c1ccccc1OC	2.84
OCCOCCN1CCN(CCCN2c3ccccc3Sc3ccc(C(F)(F)F)cc32)CC1	4.49
Cc1nnc(SCc2ccccc2)o1	1.74
CC1(C)OCCO1	0.46
